Reference: PMC4835042 (Bioorganic & medicinal chemistry letters, 2015)

Key:
human mGlu5 [1] = molecular target: T1, human mGlu5 (Homo sapiens, UniProt P41594); assay: Calcium mobilization assay, mGlu5 PAM activity; type: cell-based; details: for mGlu5 activity in words: 4y vs 4k, 21a-c pyrazole unit modifications; for decrease in mGlu5 potency versus comparator analog: 4n vs 4k, 4x vs 4c, 4z vs unsubstituted -CH2-O- linker, 20 vs piperazinone core
[2] = Predicted rat hepatic clearance from microsomal CLint; type: in vitro ADME; details: predicted hepatic clearance based on microsomal CLint data
Ca channels = assay: Cardiovascular ion channel interaction, Ca channel; details: read-out: Ca channel IC50
Na channels = assay: Cardiovascular ion channel interaction, Na channel; details: read-out: Na channel IC50
Toxicology rat MTD study = type: in vivo
[3] = High content cytotoxicity assay
[4] = Terminal unbound brain concentration in the AHL study; details: rat, in vivo, po, 10 mg/kg
human mGlu3 [5] = molecular target: T2, human mGlu3 (Homo sapiens, UniProt Q14832)
T2 sequence (Q14832 23-879): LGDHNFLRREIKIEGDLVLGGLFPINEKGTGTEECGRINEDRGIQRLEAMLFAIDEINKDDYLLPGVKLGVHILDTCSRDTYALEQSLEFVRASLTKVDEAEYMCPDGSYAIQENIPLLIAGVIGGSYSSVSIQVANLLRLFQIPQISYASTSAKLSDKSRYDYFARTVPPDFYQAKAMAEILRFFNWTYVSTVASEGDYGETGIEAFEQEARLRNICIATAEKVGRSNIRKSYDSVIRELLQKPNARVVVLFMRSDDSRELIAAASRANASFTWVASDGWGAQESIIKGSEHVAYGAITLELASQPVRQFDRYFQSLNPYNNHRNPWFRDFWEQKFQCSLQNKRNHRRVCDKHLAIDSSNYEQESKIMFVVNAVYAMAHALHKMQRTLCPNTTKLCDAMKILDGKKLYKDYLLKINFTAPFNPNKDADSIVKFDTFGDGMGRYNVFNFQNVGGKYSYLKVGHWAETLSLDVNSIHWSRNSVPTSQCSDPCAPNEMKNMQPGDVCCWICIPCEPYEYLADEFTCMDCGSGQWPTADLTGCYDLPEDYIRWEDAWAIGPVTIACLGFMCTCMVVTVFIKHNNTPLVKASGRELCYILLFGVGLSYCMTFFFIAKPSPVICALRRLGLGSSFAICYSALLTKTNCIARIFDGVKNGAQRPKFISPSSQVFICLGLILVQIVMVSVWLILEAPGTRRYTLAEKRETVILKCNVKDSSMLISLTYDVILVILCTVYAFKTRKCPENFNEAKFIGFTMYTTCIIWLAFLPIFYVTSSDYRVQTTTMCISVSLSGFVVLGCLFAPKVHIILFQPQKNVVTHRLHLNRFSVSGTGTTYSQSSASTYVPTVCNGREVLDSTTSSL

human mGlu3 [6] = molecular target: T2, human mGlu3; assay: cell-based
human mGlu5 [7] = molecular target: T1, human mGlu5; details: cited from earlier work

T1 sequence (P41594 21-1212): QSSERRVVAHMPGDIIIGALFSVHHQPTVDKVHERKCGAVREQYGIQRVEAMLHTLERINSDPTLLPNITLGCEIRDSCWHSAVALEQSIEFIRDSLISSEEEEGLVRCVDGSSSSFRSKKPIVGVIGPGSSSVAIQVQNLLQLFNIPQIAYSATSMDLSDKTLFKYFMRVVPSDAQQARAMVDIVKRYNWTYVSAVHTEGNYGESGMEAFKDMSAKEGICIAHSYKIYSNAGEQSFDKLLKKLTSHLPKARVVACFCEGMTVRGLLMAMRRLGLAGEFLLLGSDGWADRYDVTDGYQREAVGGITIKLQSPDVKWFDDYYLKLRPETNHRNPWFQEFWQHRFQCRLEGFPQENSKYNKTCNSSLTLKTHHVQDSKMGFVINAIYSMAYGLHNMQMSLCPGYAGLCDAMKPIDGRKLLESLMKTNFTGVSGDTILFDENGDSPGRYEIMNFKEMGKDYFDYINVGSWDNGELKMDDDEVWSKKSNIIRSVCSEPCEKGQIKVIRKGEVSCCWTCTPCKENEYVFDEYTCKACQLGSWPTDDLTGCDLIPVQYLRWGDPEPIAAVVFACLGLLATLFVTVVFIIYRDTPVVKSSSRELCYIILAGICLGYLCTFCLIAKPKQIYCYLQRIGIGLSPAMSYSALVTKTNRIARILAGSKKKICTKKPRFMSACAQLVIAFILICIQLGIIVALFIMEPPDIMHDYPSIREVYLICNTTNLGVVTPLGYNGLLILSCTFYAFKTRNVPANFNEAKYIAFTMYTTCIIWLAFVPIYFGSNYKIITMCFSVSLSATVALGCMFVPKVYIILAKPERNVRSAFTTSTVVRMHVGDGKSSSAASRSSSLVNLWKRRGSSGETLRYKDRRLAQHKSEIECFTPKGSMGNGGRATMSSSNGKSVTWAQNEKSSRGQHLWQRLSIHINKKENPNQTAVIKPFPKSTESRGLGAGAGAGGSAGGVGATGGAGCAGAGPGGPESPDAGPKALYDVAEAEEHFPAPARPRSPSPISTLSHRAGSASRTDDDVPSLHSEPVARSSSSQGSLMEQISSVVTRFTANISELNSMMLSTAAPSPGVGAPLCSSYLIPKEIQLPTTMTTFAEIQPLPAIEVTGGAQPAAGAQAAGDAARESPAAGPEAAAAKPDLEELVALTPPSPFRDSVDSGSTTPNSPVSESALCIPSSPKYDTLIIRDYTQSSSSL

O=C1c2cc(OCc3ccccc3)nn2CCN1c1cc(F)ccn1 [4y]
mGlu5 activity in words (human mGlu5 [1]): complete loss of activity

O=C1c2cc(COc3ccccc3)nn2CCN1c1ccc(F)cn1 [4k]
Rat CLhep [2]: 34.5 mL/min/kg
IC50 (Ca channels): > 10 µM
IC50 (Na channels): > 10 µM
death of animals at the highest dose (Toxicology rat MTD study; 600 mg/kg p.o., rat MTD study): 2/6
signs of CNS-related side-effects (compulsive behavior, pedaling movements of the forepaws, tremors) (Toxicology rat MTD study; rat MTD study 25, 75, 150, 300 and 600 mg/kg p.o.): starting at the lowest tested dose
AMES result (AMES): benign profile
high content cytotoxicity [3]: > 100 µM
concentration at 90 min [4]: 313 nM

Cc1ccc(N2CCn3nc(COc4ccccc4)cc3C2=O)nc1 [4l]
functional selectivity for mGlu5 versus mGlu3 antagonist activity (human mGlu3 [5]): > 50 fold
EC50 (human mGlu3 [6]): > 10 µM

O=C1c2cc(COc3ccccc3)nn2CCCN1c1ccc(F)cc1 [compound 20]
decrease in mGlu5 potency versus comparator analog (human mGlu5 [1]): ~ 3 fold

O=C1c2cc(COc3ccccc3)nn2CCN1c1ncc(F)cn1 [4n]
decrease in mGlu5 potency versus comparator analog (human mGlu5 [1]): ~ 6 fold

O=C1c2cc(COc3ccc(F)cc3)nn2CCN1c1ccc(F)cc1 [4q]
extent of mGlu3 antagonism (human mGlu3 [5]): full antagonism

O=C1c2cc(COc3ccccc3)nn2CCN1c1ccccn1 [4h]
increased mGlu5 potency over the 3- and 4- pyridyl isomers (4i,j) (human mGlu5 [1]): ~ 3 fold

Cc1ccc(N2CCn3nc(COc4ccccc4)cc3C2=O)cc1 [4f]
extent of mGlu3 antagonism (human mGlu3 [5]): full antagonism

O=C1c2cc(COc3ccccc3)nn2CCN1c1ccc(F)cc1 [4c]
pEC50 (±SEM) (human mGlu5 [1]; HEK293 cells expressing human mGlu5, average of three or more determinations): 7.19 ± 0.02
extent of mGlu3 antagonism (human mGlu3 [5]): full antagonism

CC(Oc1ccccc1)c1cc2n(n1)CCN(c1ccc(F)cc1)C2=O (stereo not drawn) [4z]
decrease in mGlu5 potency versus comparator analog (human mGlu5 [1]): > 100 fold

O=C1c2cc(OCc3ccccc3)nn2CCN1c1ccc(F)cc1 [4x]
decrease in mGlu5 potency versus comparator analog (human mGlu5 [1]): ~ 2.5 fold
Rat CLhep [2]: 34.6 mL/min/kg
concentration at 90 min [4]: 376 nM

O=C1c2nc(COc3ccccc3)nn2CCN1c1ccc(F)cc1 [21a]
mGlu5 activity in words (human mGlu5 [1]): remarkable loss of mGlu5 potency

Cc1c(COc2ccccc2)nn2c1C(=O)N(c1ccc(F)cc1)CC2 [21b]
mGlu5 activity in words (human mGlu5 [1]): remarkable loss of mGlu5 potency

O=C(c1ccc(F)cc1)N1CCc2oc(COc3ccccc3)nc2C1 [compound 1]
glutamate CRC fold-shift (FS) (human mGlu5 [7]): 11

O=C1c2cc(COc3ccccn3)nn2CCN1c1ccc(F)cc1 [4s]
extent of mGlu3 antagonism (human mGlu3 [5]): full antagonism

O=C1c2cc(COc3cccc(F)c3)nn2CCN1c1ccc(F)cn1 [4w]
EC50 (human mGlu3 [6]): 0.14 µM
